From ChEMBL document CHEMBL1132134, “The LMC delta opioid recognition pharmacophore: comparison of SNC80 and oxymorphindole” (Bioorg Med Chem Lett, 1999)

Columns and labels:
[1] = biological target: Opioid receptors; mu & delta (Rattus norvegicus) (UniProt P33533+P33535); assay: Selectivity ratio against mu opioid receptor to that of delta opioid receptor; assay type: protein assay
[2] = biological target: Delta-type opioid receptor (Rattus norvegicus, UniProt P33533); assay: Binding affinity evaluated by inhibition of binding of [3H]DADLE to delta opioid receptor of rat brain
Sequence of Delta-type opioid receptor (P33533 whole entry): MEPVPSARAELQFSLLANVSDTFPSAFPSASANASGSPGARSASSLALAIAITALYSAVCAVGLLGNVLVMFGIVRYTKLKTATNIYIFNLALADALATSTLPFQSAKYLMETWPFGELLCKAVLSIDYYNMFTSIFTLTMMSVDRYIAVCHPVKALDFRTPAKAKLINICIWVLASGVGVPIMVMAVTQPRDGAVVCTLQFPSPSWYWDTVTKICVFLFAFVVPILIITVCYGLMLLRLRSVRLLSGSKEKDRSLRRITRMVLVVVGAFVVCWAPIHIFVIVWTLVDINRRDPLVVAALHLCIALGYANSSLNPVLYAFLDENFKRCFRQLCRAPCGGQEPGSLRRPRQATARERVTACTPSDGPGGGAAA

Sequence of Opioid receptors; mu & delta (Rattus norvegicus) (P33533 whole entry, looked up): as the sequence (P33533 whole entry) above
Sequence of Opioid receptors; mu & delta (Rattus norvegicus) (P33535 whole entry, looked up): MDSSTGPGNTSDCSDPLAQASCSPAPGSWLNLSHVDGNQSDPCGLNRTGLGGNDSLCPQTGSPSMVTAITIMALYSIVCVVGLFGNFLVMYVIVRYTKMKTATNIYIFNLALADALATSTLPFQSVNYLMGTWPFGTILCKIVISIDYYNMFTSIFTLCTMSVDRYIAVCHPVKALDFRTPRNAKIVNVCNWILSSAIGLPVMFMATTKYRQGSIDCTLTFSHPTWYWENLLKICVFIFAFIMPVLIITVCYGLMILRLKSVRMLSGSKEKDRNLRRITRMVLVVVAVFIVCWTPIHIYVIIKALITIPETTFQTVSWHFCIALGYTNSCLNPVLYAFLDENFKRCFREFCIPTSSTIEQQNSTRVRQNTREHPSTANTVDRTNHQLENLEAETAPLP

## O=C1/C(=C/c2c3ccccc3cc3ccccc23)C[C@@]2(O)C3Cc4ccc(O)c5c4C2(CCN3CC2CC2)C1O5 (stereo not given in full)
[1]
  Selectivity: 6.4
[2]
  Ki: 17 nM

## O=C1/C(=C\c2ccc(-c3ccccc3)cc2)C[C@@]2(O)C3Cc4ccc(O)c5c4C2(CCN3CC2CC2)C1O5 (stereo not given in full)
[1]
  Selectivity: 4.2
[2]
  Ki: 47 nM

## O=C1/C(=C/c2cccc3ccccc23)C[C@@]2(O)C3Cc4ccc(O)c5c4C2(CCN3CC2CC2)C1O5 (stereo not given in full)
[1]
  Selectivity: 7.5
[2]
  Ki: 4.6 nM

## O=C1/C(=C\c2c3ccccc3cc3ccccc23)C[C@@]2(O)C3Cc4ccc(O)c5c4C2(CCN3CC2CC2)C1O5 (stereo not given in full)
[1]
  Selectivity: 14
[2]
  Ki: 2.4 nM

## O=C1/C(=C/c2ccc3ccccc3c2)C[C@@]2(O)C3Cc4ccc(O)c5c4C2(CCN3CC2CC2)C1O5 (stereo not given in full)
[1]
  Selectivity: 0.6
[2]
  Ki: 39 nM

## O=C1/C(=C/c2ccc(-c3ccccc3)cc2)C[C@@]2(O)C3Cc4ccc(O)c5c4C2(CCN3CC2CC2)C1O5 (stereo not given in full)
[1]
  Selectivity: 0.6
[2]
  Ki: 75 nM

## O=C1/C(=C/c2ccccc2)C[C@@]2(O)[C@H]3Cc4ccc(O)c5c4[C@@]2(CCN3CC2CC2)[C@H]1O5 [BNTX]
[1]
  Selectivity: 4
[2]
  Ki: 6.2 nM

## O=C1/C(=C\c2ccccc2)C[C@@]2(O)[C@H]3Cc4ccc(O)c5c4[C@@]2(CCN3CC2CC2)[C@H]1O5
[1]
  Selectivity: 8.6
[2]
  Ki: 3.7 nM

## O=C1/C(=C\c2ccc3ccccc3c2)C[C@@]2(O)C3Cc4ccc(O)c5c4C2(CCN3CC2CC2)C1O5 (stereo not given in full)
[1]
  Selectivity: 3
[2]
  Ki: 16 nM

## O=C1/C(=C\c2cccc3ccccc23)C[C@@]2(O)C3Cc4ccc(O)c5c4C2(CCN3CC2CC2)C1O5 (stereo not given in full)
[1]
  Selectivity: 15
[2]
  Ki: 0.7 nM
